Reference: patent US20260083687A1, “COMPOUNDS FOR REDUCING LACTATION AND IMPROVING HEALTH” (AHV International B.V., priority 2022, published 2026)
Where “and” joins values, the source holds several entries; their conditions need not be identical. Equal entries are not always repeated. Where two headings read alike, the source gives them in different places.

What was measured:
[1] = test system: cows (Holstein Friesians); test: Treatment with DPD analogs (organosulfur compounds) and milk yield (Example 8); format: in vivo, cow
Description: Study design. 36 cows (Holstein Friesians) from 2 farms were used. The feed of the cows was composed of TMR, including corn and grass silage, supplemented with soya and minerals. […] The cows were milked in a milk robot. […] The cows were milked twice a day. The cows were housed in free stables. […] Placebo treatment corresponded to administration of two gel capsules containing 180 ml water.
For this study dosages synthetic compounds (>96% purity) as indicated in table 17 were administered to cows. The objective of this study was to compare the activity of a corresponding dose of the compounds expressed in mol, based on the number of moles that is present in 80 ml di-n-propyl disulfide at 20° C. The number of moles was converted to ml or grams of the tested compounds. For this purpose, the molecular weight and specific density were used in the calculations. The compounds were formulated in the gel capsules as indicated in the previous examples.
Before the various dosages were administered, the milk yields were monitored for at least 5 days.

[2] = test system: cows (Holstein Friesians)
Description: Study design. Twelve cows (Holstein Friesians) from 1 farm were used. The start of the dry period of every cow was between 40 to 60 days before calving. The cows were milked twice a day at fixed times and the cows were selected on a milk production of >12.5 litres/day 24 hours before PTS administering took place. […] No extra measures were taken to stimulate dry-off, such as changes in feed ration or changes in milking frequency. The cows were milked twice a day. The cows were housed in free stables. A porcine gelatine capsule with PTS or placebo gel capsule with water were administered 7 to 14 days before the start of the dry-off period.
For this study various dosages synthetic PTS (>98% purity) were administered to cows with a milk yield of at least 12.5 kg milk per day. The following dosages were applied: 0, 10, 20, 40 ml of pure PTS. For each dosage 2 cows were used.
Before the various dosages were administered the milk yield was monitored for 14 days. The gel capsules were orally administered by a bolus shooter, the gel capsule for the placebo group contained tap water. Administering of a capsule took place between the morning and afternoon milking. On t=14 days the PTS-containing capsules and the placebo capsules were administered and the milk yield was monitored 48 hours more.

[3] = individual cows, dose per compound as listed in E284
[4] = vs milk yield before treatment, individual cows, dose per compound as listed in E284

Compound: CCCS[S+]([O-])CCC (centres unmarked) [PTS, di-n-propyl thiosulfinate]
- % reduction after 24 h average (milk yield) ([1]; 24 h after one oral gel capsule, dose equimolar to 80 ml di-n-propyl disulfide, negative value = increase in yield): 45%
- % reduction after 48 h average (milk yield) ([1]; 48 h after one oral gel capsule, dose equimolar to 80 ml di-n-propyl disulfide, negative value = increase in yield): 44%
- % reduction after 72 h average (milk yield) ([1]; 72 h after one oral gel capsule, dose equimolar to 80 ml di-n-propyl disulfide, negative value = increase in yield): 23%
- % reduction after 96 h average (milk yield) ([1]; 96 h after one oral gel capsule, dose equimolar to 80 ml di-n-propyl disulfide, negative value = increase in yield): 10%
- average reduction after 24, 48 and 72 h (%) (milk yield) ([1]; average of 24, 48 and 72 h after one oral gel capsule, dose equimolar to 80 ml di-n-propyl disulfide): 37%
- Average reduction after 24 and 48 h (%) (milk yield) ([1]; average of 24 and 48 h after one oral gel capsule, dose equimolar to 80 ml di-n-propyl disulfide): 45%
- Milk yield (kg) Last milking ([1]; before administration, individual cows, single oral gel capsule dose per cow (ml unless g): diethyl disulfide 63, di-n-propyl disulfide 80, diisopropyl disulfide 160, di-n-butyl disulfide 100, dibenzyl disulfide 102, diethyl sulfide 55, di-n-propyl sulfide 72, diisopropyl sulfide 74, di-n-butyl sulfide 90, dibenzyl sulfide 96 g, diphenyl sulfide 85, di-n-propyl trisulfide 98, di-n-propyl sulfone 6): 28.6 kg and 32.7 kg
- Average reduction after 24 and 48 h (%) [1, 3]: 49% and 40%
- Milk yield (kg) After 24 h [1, 3]: 14.5 kg and 19.4 kg
- Milk yield (kg) After 48 h [1, 3]: 14.9 kg and 20 kg
- Milk yield (kg) After 72 h [1, 3]: 23.4 kg and 23.9 kg
- Milk yield (kg) After 96 h [1, 3]: 27.2 kg and 27.8 kg
- average reduction after 24, 48 and 72 h (%) [1, 3]: 39% and 35.7%
- % reduction after 24 h [1, 4]: 49% and 40%
- % reduction after 48 h [1, 4]: 48% and 39%
- % reduction after 72 h [1, 4]: 18% and 27%
- % reduction after 96 h [1, 4]: 5% and 15%
- effect on milk yield compared to the milk yield before treatment ([2]; 20 ml PTS): clear lowering on milk yield
- effect on milk yield/day ([2]; 40 and 60 ml PTS): visible
- Milk yield ([2]; 40 ml PTS given after last milking on day 0, day 0, individual cows): 32.4 kg and 28.4 kg
- Milk yield ([2]; 40 ml PTS given on day 0, day 1, individual cows): 22.4 kg and 21.9 kg
- Milk yield ([2]; 40 ml PTS given on day 0, day 2, individual cows): 24.4 kg and 23.4 kg
- Milk yield ([2]; 40 ml PTS given on day 0, day 3, individual cows): 28.9 kg and 26.4 kg
- Milk yield ([2]; 40 ml PTS given on day 0, day 4, individual cows): 32.2 kg and 27.1 kg
- Milk yield ([2]; 40 ml PTS given on day 0, day 5, individual cows): 31.2 kg and 28.2 kg
- Milk yield ([2]; 40 ml PTS given on day 0, day 6, individual cows): 32.0 kg and 28.3 kg
- Milk yield ([2]; 40 ml PTS given on day 0, day −1, individual cows): 31.9 kg and 27.7 kg
- Milk yield ([2]; 40 ml PTS given on day 0, day −2, individual cows): 32.2 kg and 28.9 kg
- Milk yield ([2]; 40 ml PTS given on day 0, day −3, individual cows): 33.3 kg and 28.1 kg
- Milk yield ([2]; 40 ml PTS given on day 0, day −4, individual cows): 31.9 kg and 28.5 kg
- Milk yield ([2]; 40 ml PTS given on day 0, day −5, individual cows): 31.4 kg and 27.9 kg
- Milk yield ([2]; 40 ml PTS given on day 0, day −6, individual cows): 33.2 kg and 28.3 kg
- Average milking/day of last 7 days before administration ([2]; 40 ml PTS, individual cows): 32.3 kg and 28.3 kg
- % reduction after 24 h ([2]; 40 ml PTS, individual cows): 31% and 23%
- % reduction after 48 h ([2]; 40 ml PTS, individual cows): 24% and 17%
- % reduction after 72 h ([2]; 40 ml PTS, individual cows): 11% and 7%
- Average reduction 24 and 48 h (%) ([2]; 40 ml PTS, individual cows): 28% and 20%
- Milk yield After 24 h ([2]; 40 ml PTS, individual cows): 22.4 kg and 21.9 kg
- Milk yield After 48 h ([2]; 40 ml PTS, individual cows): 24.4 kg and 23.4 kg
- Milk yield After 72 h ([2]; 40 ml PTS, individual cows): 28.9 kg and 26.4 kg
- Milk yield After 96 h ([2]; 40 ml PTS, individual cows): 32.2 kg and 27.1 kg
- Milk yield After 120 h ([2]; 40 ml PTS, individual cows): 31.2 kg and 28.2 kg
- Milk yield ([2]; 60 ml PTS given after last milking on day 0, day 0, individual cows): 32.4 kg and 29.3 kg
- Milk yield ([2]; 60 ml PTS given on day 0, day 1, individual cows): 19.4 kg and 14.5 kg
- Milk yield ([2]; 60 ml PTS given on day 0, day 2, individual cows): 20.0 kg and 14.9 kg
- Milk yield ([2]; 60 ml PTS given on day 0, day 3, individual cows): 23.9 kg and 23.4 kg
- Milk yield ([2]; 60 ml PTS given on day 0, day 4, individual cows): 27.8 kg and 27.2 kg
- Milk yield ([2]; 60 ml PTS given on day 0, day 5, individual cows): 31.6 kg and 28.3 kg
- Milk yield ([2]; 60 ml PTS given on day 0, day 6, individual cows): 32.2 kg and 27.4 kg
- Milk yield ([2]; 60 ml PTS given on day 0, day −1, individual cows): 32.2 kg and 28.1 kg
- Milk yield ([2]; 60 ml PTS given on day 0, day −2, individual cows): 33.2 kg and 28.3 kg
- Milk yield ([2]; 60 ml PTS given on day 0, day −3, individual cows): 31.9 kg and 27.4 kg
- Milk yield ([2]; 60 ml PTS given on day 0, day −4, individual cows): 33.5 kg and 29.6 kg
- Milk yield ([2]; 60 ml PTS given on day 0, day −5, individual cows): 32.4 kg and 28.3 kg
- Milk yield ([2]; 60 ml PTS given on day 0, day −6, individual cows): 33.4 kg and 28.9 kg
- Average milking/day of last 7 days before administration ([2]; 60 ml PTS, individual cows): 28.6 kg and 32.7 kg
- % reduction after 24 h ([2]; 60 ml PTS, individual cows): 51% and 40%
- % reduction after 48 h ([2]; 60 ml PTS, individual cows): 48% and 39%
- % reduction after 72 h ([2]; 60 ml PTS, individual cows): 18% and 27%
- % reduction after 96 h ([2]; 60 ml PTS, individual cows): 5% and 15%
- Average reduction 24 and 48 h (%) ([2]; 60 ml PTS, individual cows): 50% and 40%
- Milk yield After 24 h ([2]; 60 ml PTS, individual cows): 14.5 kg and 19.4 kg
- Milk yield After 48 h ([2]; 60 ml PTS, individual cows): 14.9 kg and 20 kg
- Milk yield After 72 h ([2]; 60 ml PTS, individual cows): 23.4 kg and 23.9 kg
- Milk yield After 96 h ([2]; 60 ml PTS, individual cows): 27.2 kg and 27.8 kg
- Milk yield After 120 h ([2]; 60 ml PTS, individual cows): 28.3 kg and 31.6 kg
- time to recovery of milk yield after administration ([2]; PTS): 3 to 4 days
- damage to the udder ([2]; bovine, in vivo): does not reduce milk yield because of damaging the udder
